Data taken from patent publication US7138361B2, “Herbicidal heterocycles” (E. I. du Pont de Nemours and Company, priority 2000, dated 2006).

Experiments:
Type in all cases: in vivo
Sunflower [1] = experiment: Test C preemergence; conditions: Rate 500 g/ha, visual evaluation after 12 to 14 days
Sunflower [2] = experiment: Test C preemergence; conditions: Rate 250 g/ha, scale 0 to 100, 0 no effect, 100 complete control
wild oat (Avena fatua) = experiment: Test B postemergence; conditions: Rate 125 g/ha, scale 0 to 100, 0 no effect, 100 complete control
Method in brief: (§1)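 Visual injury scores, 0 = no effect to 100 = complete control, assigned against controls after 13 to 15 days in the greenhouse. Compounds formulated in non-phytotoxic solvent plus surfactant and applied to soil after planting (pre) or onto foliage of 1- to 4-leaf plants (post).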

[3] = test system: giant foxtail (Setaria faberii); experiment: Test B postemergence; conditions: Rate 125 g/ha, scale 0 to 100, 0 no effect, 100 complete control
Method in brief: as §1

[4] = test system: crabgrass (Digitaria sanguinalis); experiment: Test B postemergence; conditions: Rate 125 g/ha, scale 0 to 100, 0 no effect, 100 complete control
Method in brief: as §1

[5] = test system: pigweed (Amaranthus retroflexus); experiment: Test B postemergence; conditions: Rate 125 g/ha, scale 0 to 100, 0 no effect, 100 complete control
Method in brief: as §1

[6] = test system: cocklebur (Xanthium strumarium); experiment: Test B postemergence
Method in brief: as §1

[7] = test system: wheat (Triticum aestivum); experiment: Test B postemergence; conditions: Rate 125 g/ha, scale 0 to 100, 0 no effect, 100 complete control
Method in brief: as §1

[8] = test system: blackgrass (Alopecurus myosuroides); experiment: Test B postemergence
Method in brief: as §1

rice (Oryza saliva) [9] = experiment: Test C flooded paddy test; conditions: for Plant response rating, Rice: scale 0 to 100 (0 no effect, 100 complete control)
Method in brief: (§2)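 Visually assessed vs untreated controls 12–14 d post-treatment (greenhouse). Flooded paddy plants were at the 2-leaf stage; scale 0 = no effect, 100 = complete control.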

[10] = test system: barnyardgrass (Echinochloa crus-galli); experiment: Test C flooded paddy test; conditions: for Plant response rating, Barnyardgrass: scale 0 to 100 (0 no effect, 100 complete control)
Method in brief: as §2

[11] = test system: duck salad (Heteranthera limosa); experiment: Test C flooded paddy test; conditions: for Plant response rating, Ducksalad: scale 0 to 100 (0 no effect, 100 complete control)
Method in brief: as §2

[12] = test system: smallflower flatsedge (Cyperus difformis); experiment: Test C flooded paddy test; conditions: for Plant response rating, Flatsedge: scale 0 to 100 (0 no effect, 100 complete control)
Method in brief: as §2

Nightshade = experiment: Test C preemergence; conditions: Rate 500 g/ha, visual evaluation after 12 to 14 days
Sunflower [13] = experiment: Test C preemergence; conditions: Rate 62 g/ha, scale 0 to 100
corn (Zea mays) = experiment: Test B preemergence
Method in brief: as §1

[14] = test system: lambsquarters (Chenopodium album); experiment: Test B preemergence
Method in brief: as §1

[15] = test system: Surinam grass (Brachiaria decumbens); experiment: Test B preemergence
Method in brief: as §1

[16] = test system: velvetleaf (Abutilon theophrasti); experiment: Test B preemergence
Method in brief: as §1

[17] = test system: giant foxtail (Setaria faberii); experiment: Test B preemergence
Method in brief: as §1

[18] = test system: crabgrass (Digitaria sanguinalis); experiment: Test B preemergence
Method in brief: as §1

rice (Oryza saliva) [19] = experiment: Test B preemergence
Method in brief: as §1

[20] = test system: pigweed (Amaranthus retroflexus); experiment: Test B preemergence
Method in brief: as §1

[21] = test system: cocklebur (Xanthium strumarium); experiment: Test B preemergence
Method in brief: as §1

[22] = test system: morning glory (Ipomoea hederacea); experiment: Test B preemergence
Method in brief: as §1

[23] = test system: barnyardgrass (Echinochloa crus-galli); experiment: Test B preemergence
Method in brief: as §1

[24] = Rate 125 g/ha, scale 0 to 100, 0 no effect, 100 complete control
[25] = Rate 500 g/ha, scale 0 to 100, 0 is no effect, 100 is complete control, 13 to 15 days
[26] = Flooded Paddy, Rate 500 g/ha, scale 0 to 100, 0 no effect, 100 complete control
[27] = flooded paddy test, Rate 125 g/ha
[28] = flooded paddy test, Rate 250 g/ha
[29] = flooded paddy test, Rate 62 g/ha, visually evaluated after 12 to 14 days, 0 = no effect, 100 = complete control
[30] = Preemergence, Rate 500 g/ha, scale 0 to 100, 0 no effect, 100 complete control
[31] = preemergence, Rate 125 g/ha, scale of 0 to 100 where 0 is no effect and 100 is complete control, 13 to 15 days

`CCC(C)c1ccn(C2OCN(c3cccc(OC(F)F)c3)C2=O)n1` (stereo not drawn) [Compound 134] was tested, and the “Plant response rating (0 to 100), Sunflower” value (Sunflower [1]) was 20, the “Plant response rating, Sunflower” value (Sunflower [2]) was 0 and the “Plant response rating, Wild Oat” value (wild oat (Avena fatua)) was 0. For the same compound, the “Plant response rating, Foxtail, Giant” value [3] was 30, the “Plant response rating, Crabgrass” value [4] was 20 and the “Plant response rating, Pigweed” value [5] was 60. The “Plant response rating, Cocklebur” value [6, 24] was 30, the “Plant response rating, Cocklebur” value [6, 25] was 30 and the “Plant response rating, Wheat” value [7] was 0. The “Plant response rating, Blackgrass” value [8, 24] was 0, the “Plant response rating, Blackgrass” value [8, 25] was 0 and the “Rice plant response rating” value (rice (Oryza saliva) [9]; [26]) was 90. The “Plant response rating, Rice” value (rice (Oryza saliva) [9]; [27]) was 60, the “Plant response rating, Rice” value (rice (Oryza saliva) [9]; [28]) was 90 and the “Plant response rating (scale 0 to 100), Rice” value (rice (Oryza saliva) [9]; [29]) was 0. For the same compound, the “Barnyardgrass plant response rating” value [10, 26] was 100, the “Plant response rating, Barnyardgrass” value [10, 27] was 100 and the “Plant response rating, Barnyardgrass” value [10, 28] was 100. The “Plant response rating (scale 0 to 100), Barnyardgrass” value [10, 29] was 100, the “Ducksalad plant response rating” value [11, 26] was 100 and the “Plant response rating, Ducksalad” value [11, 27] was 90. For the same compound, the “Plant response rating, Ducksalad” value [11, 28] was 100, the “Plant response rating (scale 0 to 100), Ducksalad” value [11, 29] was 60 and the “Flatsedge plant response rating” value [12, 26] was 100. For the same compound, the “Plant response rating, Flatsedge” value [12, 27] was 100, the “Plant response rating, Flatsedge” value [12, 28] was 100 and the “Plant response rating (scale 0 to 100), Flatsedge” value [12, 29] was 90. For the same compound, the “Plant response rating (0 to 100), Nightshade” value (Nightshade) was 90, the “Plant response rating, Sunflower” value (Sunflower [13]) was 0 and the “Plant response rating, Corn” value (corn (Zea mays); [30]) was 90. For the same compound, the “Plant response rating, Corn” value (corn (Zea mays); [31]) was 20, the “Plant response rating, Lambsquarters” value [14, 30] was 100 and the “Plant response rating, Lambsquarters” value [14, 31] was 100. For the same compound, the “Plant response rating, Surinam grass” value [15, 30] was 100, the “Plant response rating, Surinam grass” value [15, 31] was 90 and the “Plant response rating, Velvetleaf” value [16, 30] was 0. The “Plant response rating, Velvetleaf” value [16, 31] was 0, the “Plant response rating, Foxtail, Giant” value [17, 30] was 100 and the “Plant response rating, Foxtail, Giant” value [17, 31] was 100. For the same compound, the “Plant response rating, Crabgrass” value [18, 30] was 100, the “Plant response rating, Crabgrass” value [18, 31] was 100 and the “Plant response rating, Rice” value (rice (Oryza saliva) [19]; [30]) was 100. For the same compound, the “Plant response rating, Rice” value (rice (Oryza saliva) [19]; [31]) was 100, the “Plant response rating, Pigweed” value [20, 30] was 100 and the “Plant response rating, Pigweed” value [20, 31] was 100. For the same compound, the “Plant response rating, Cocklebur” value [21, 30] was 0, the “Plant response rating, Cocklebur” value [21, 31] was 0 and the “Plant response rating, Morningglory” value [22, 30] was 0. The “Plant response rating, Morningglory” value [22, 31] was 0, the “Plant response rating, Barnyardgrass” value [23, 30] was 100 and the “Plant response rating, Barnyardgrass” value [23, 31] was 100.
